The results in this text go back to patent publication US20230141101A1, “PDE4 INHIBITOR COMPOUND AND MEDICAL USE THEREOF” (Suzhou Longbotai Pharmaceuticals Co., Ltd., priority 2020, published 2023).

As a reminder, the IC50 is the concentration that inhibits the measured activity by half.

Format in all cases: biochemical
For one assay, the target named is T1, PDE4B1 (Homo sapiens, UniProt Q07343).
T1 construct: purchased BPS 60041
The experiment in a line: PDE4 inhibitory activity assay (FAM-cAMP enzymatic reaction), PDE4B1. The essentials: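 Each isoform is incubated with test compound for 15 min at room temperature before FAM-cAMP substrate starts a 30-min reaction.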

A further assay deals with PDE4D2 (Homo sapiens, UniProt Q08499). Description: PDE4 inhibitory activity assay (FAM-cAMP enzymatic reaction), PDE4D2. The gist of the method: (§1)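 Read-out: fluorescence-based detection of FAM-cAMP turnover on a multilabel counter, with IC50 derived by fitting inhibition rates. The reaction ran 30 min at room temperature after a 15-min enzyme–compound preincubation, followed by stopping and 60 min further incubation.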

The next assay concerns the target T2, PDE4A1A (Homo sapiens, UniProt P27815).
T2 construct: purchased BPS 60040
Description: PDE4 inhibitory activity assay (FAM-cAMP enzymatic reaction), PDE4A1A. The gist of the method:
as §1

[1] abbreviates: compared with Apremilast and Example 11 of WO2018036470 (WX011).

T1 sequence (Q07343 whole entry): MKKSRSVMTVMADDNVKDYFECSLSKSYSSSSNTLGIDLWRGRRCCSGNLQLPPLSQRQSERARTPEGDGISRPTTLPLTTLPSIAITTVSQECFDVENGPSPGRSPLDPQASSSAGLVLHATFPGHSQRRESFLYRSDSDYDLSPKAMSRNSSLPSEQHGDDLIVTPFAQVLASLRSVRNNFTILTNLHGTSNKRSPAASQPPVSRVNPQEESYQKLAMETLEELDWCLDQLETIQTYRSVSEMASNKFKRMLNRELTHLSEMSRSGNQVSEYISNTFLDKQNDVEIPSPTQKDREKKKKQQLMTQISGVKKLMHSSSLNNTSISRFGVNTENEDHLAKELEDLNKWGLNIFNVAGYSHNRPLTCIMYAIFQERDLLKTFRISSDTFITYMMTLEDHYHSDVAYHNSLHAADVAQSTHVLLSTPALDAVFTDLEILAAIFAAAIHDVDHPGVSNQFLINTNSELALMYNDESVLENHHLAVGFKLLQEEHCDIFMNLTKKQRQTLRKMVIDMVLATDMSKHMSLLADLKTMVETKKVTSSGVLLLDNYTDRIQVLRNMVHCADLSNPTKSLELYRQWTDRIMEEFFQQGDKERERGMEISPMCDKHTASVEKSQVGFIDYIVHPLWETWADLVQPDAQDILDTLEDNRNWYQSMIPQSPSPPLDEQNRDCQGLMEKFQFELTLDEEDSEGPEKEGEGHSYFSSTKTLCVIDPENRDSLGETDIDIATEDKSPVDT
PDE4D2, sequence (Q08499 303-809): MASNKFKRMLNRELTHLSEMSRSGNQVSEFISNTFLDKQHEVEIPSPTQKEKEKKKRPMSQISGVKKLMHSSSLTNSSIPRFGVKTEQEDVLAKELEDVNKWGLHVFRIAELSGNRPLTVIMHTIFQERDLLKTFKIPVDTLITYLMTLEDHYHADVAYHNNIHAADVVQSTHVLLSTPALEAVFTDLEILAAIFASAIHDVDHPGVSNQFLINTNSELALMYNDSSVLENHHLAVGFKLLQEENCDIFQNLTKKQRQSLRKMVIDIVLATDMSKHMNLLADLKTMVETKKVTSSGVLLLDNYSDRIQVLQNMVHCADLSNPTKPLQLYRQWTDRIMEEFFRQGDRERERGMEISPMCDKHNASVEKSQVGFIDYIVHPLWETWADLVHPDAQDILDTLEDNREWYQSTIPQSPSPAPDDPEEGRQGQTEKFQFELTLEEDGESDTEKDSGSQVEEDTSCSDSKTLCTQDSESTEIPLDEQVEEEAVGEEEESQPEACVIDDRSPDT
T2 sequence (P27815 1-647 isoform P27815-4): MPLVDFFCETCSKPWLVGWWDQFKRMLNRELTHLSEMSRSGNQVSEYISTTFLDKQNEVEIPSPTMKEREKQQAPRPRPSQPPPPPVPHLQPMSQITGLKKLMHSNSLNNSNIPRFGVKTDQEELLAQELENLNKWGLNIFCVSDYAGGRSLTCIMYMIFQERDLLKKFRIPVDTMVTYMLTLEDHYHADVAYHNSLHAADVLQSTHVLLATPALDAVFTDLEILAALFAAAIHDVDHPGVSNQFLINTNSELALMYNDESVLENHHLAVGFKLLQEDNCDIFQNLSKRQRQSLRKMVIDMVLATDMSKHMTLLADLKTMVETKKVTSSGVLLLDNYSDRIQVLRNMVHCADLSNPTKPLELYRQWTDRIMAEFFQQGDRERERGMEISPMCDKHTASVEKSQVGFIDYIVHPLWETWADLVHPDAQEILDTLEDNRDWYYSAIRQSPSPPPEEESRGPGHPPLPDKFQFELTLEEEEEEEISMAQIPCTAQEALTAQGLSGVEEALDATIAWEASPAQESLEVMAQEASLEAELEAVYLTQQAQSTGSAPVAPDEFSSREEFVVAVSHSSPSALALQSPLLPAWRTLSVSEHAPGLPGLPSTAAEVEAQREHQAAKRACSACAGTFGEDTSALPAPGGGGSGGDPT

Turning to `CCOc1nc([C@@H](CS(C)(=O)=O)n2c(=O)[nH]c3c(C)c(-c4ccccc4OC)cnc32)ccc1OC` [Ex. 12, (S)-3-(1-(6-ethoxy-5-methoxypyridin-2-yl)-2-(methylsulfonyl)ethyl)-6-(2-methoxyphenyl)-7-methyl-1H-imidazo[4,5-b]pyridin-2(3H)-one], the “inhibitory activity against PDE4B1 compared with Apremilast and WX011” value against PDE4B1 (setting [1]) was “significantly enhanced inhibitory activity”. The “inhibitory activity against PDE4D2 compared with Apremilast and WX011” value at PDE4D2 (setting [1]) is on record as “significantly enhanced inhibitory activity”. Moreover, at PDE4D2 (read-out: PDE4 D2 inhibitory activity (IC50 value)), the IC50 stood at 3.2 nM. At PDE4A1A (setting [1]), the “inhibitory activity against PDE4A1A compared with Apremilast and WX011” value is “significantly enhanced inhibitory activity”.
Consider `CCOc1ccccc1-c1ccc2c(c1)[nH]c(=O)n2[C@H](CS(C)(=O)=O)c1ccc(OC)c(OCC)n1` [Ex. 192, (S)-1-(1-(6-ethoxy-5-methoxypyridin-2-yl)-2-(methylsulfonyl)ethyl)-5-(2-ethoxyphenyl)-1H-benzo[d]imidazol-2(3H)-one], for which, on PDE4B1, the “PDE4 B1 inhibitory effect at 20 nM” value was “+”. Moreover, the “PDE4 D2 inhibitory effect at 20 nM” value on PDE4D2 is “+”. In addition, the “PDE4 A1 inhibitory effect at 20 nM” value on PDE4A1A is given as “+”.
In the case of `CCOc1nc([C@@H](CS(C)(=O)=O)n2c(=O)[nH]c3cc(-c4ccccc4)ccc32)ccc1OC` [Ex. 130, (S)-1-(1-(6-ethoxy-5-methoxypyridin-2-yl)-2-(methylsulfonyl)ethyl)-5-phenyl-1H-benzo[d]imidazol-2(3H)-one], on PDE4B1, the “PDE4 B1 inhibitory effect at 20 nM” value is “+”. The “PDE4 D2 inhibitory effect at 20 nM” value at PDE4D2 is recorded as “+”. In addition, the “PDE4 A1 inhibitory effect at 20 nM” value on PDE4A1A was “+”.
For the molecule `CCOc1ccccc1-c1ccc2c(c1)[nH]c(=O)n2[C@@H](CS(C)(=O)=O)c1ccc(OC)c(OCC)n1` [Ex. 193, (R)-1-(1-(6-ethoxy-5-methoxypyridin-2-yl)-2-(methylsulfonyl)ethyl)-5-(2-ethoxyphenyl)-1H-benzo[d]imidazol-2(3H)-one], on PDE4B1, the “PDE4 B1 inhibitory effect at 20 nM” value is “−”. Besides, the “PDE4 D2 inhibitory effect at 20 nM” value at PDE4D2 is listed as “−”. The “PDE4 A1 inhibitory effect at 20 nM” value on PDE4A1A is recorded as “−”.
Turning to `CCOc1nc([C@@H](CS(C)(=O)=O)n2c(=O)n(C3CC3)c3cc(C)ccc32)ccc1OC` [Ex. 209, (S)-3-cyclopropyl-1-(1-(6-ethoxy-5-methoxypyridin-2-yl)-2-(methylsulfonyl)ethyl)-5-methyl-1H-benzo[d]imidazol-2(3H)-one], the “PDE4 B1 inhibitory effect at 20 nM” value at PDE4B1 is listed as “+”. Further, the “PDE4 D2 inhibitory effect at 20 nM” value at PDE4D2 is reported as “+”. In addition, the “PDE4 A1 inhibitory effect at 20 nM” value at PDE4A1A is reported as “+”.
For the molecule `CCOc1nc([C@@H](CS(C)(=O)=O)n2c(=O)n(C)c3cc(-c4ccc(F)cc4)cnc32)ccc1OC` [Ex. 128, (S)-3-(1-(6-ethoxy-5-methoxypyridin-2-yl)-2-(methylsulfonyl)ethyl)-6-(4-fluorophenyl)-1-methyl-1H-imidazo[4,5-b]pyridin-2(3H)-one], the “PDE4 B1 inhibitory effect at 20 nM” value at PDE4B1 is on record as “+”. Besides, the “PDE4 D2 inhibitory effect at 20 nM” value at PDE4D2 was “+”. For the same molecule, on PDE4A1A, the “PDE4 A1 inhibitory effect at 20 nM” value is reported as “+”.
In the case of `CCOc1nc([C@@H](CS(C)(=O)=O)n2c(=O)[nH]c3cc(-c4ccc(C)cc4F)cnc32)ccc1OC` [Ex. 115], the “PDE4 B1 inhibitory effect at 20 nM” value at PDE4B1 is recorded as “+”. The “PDE4 D2 inhibitory effect at 20 nM” value at PDE4D2 is on record as “+”. Also, the “PDE4 A1 inhibitory effect at 20 nM” value at PDE4A1A is listed as “+”.
For the molecule `CCOc1nc([C@@H](CS(C)(=O)=O)n2c(=O)n(C)c3cc(-c4ccccc4F)cnc32)ccc1OC` [Ex. 126, (S)-3-(1-(6-ethoxy-5-methoxypyridin-2-yl)-2-(methylsulfonyl)ethyl)-6-(2-fluorophenyl)-1-methyl-1H-imidazo[4,5-b]pyridin-2(3H)-one], on PDE4B1, the “PDE4 B1 inhibitory effect at 20 nM” value is listed as “+”. Also, the “PDE4 D2 inhibitory effect at 20 nM” value on PDE4D2 was “+”. Further, the “PDE4 A1 inhibitory effect at 20 nM” value at PDE4A1A is “+”.
`CCOc1nc([C@@H](CS(C)(=O)=O)N2C(=O)c3csc(NC(=O)CN4CCCC4)c3C2=O)ccc1OC` [Ex. 231, (S)—N-(5-(1-(6-ethoxy-5-methoxypyridin-2-yl)-2-(methylsulfonyl)ethyl)-4,6-dioxo-5,6-dihydro-4H-thieno[3,4-c]pyrrol-1-yl)-2-(pyrrolidin-1-yl)acetamide]: the “PDE4 B1 inhibitory effect at 20 nM” value on PDE4B1 was “+”. On PDE4D2, the “PDE4 D2 inhibitory effect at 20 nM” value is given as “+”. The “PDE4 A1 inhibitory effect at 20 nM” value on PDE4A1A is “+”.
